In patent publication US8440643B2, “Inhibitors of beta-lactamase” (MethylGene Inc., priority 2006, dated 2013) one finds MIC data, which are given here for 1 molecule.

This assay concerns Ps. aeruginosa, CL 5701. Put plainly: Imipenem MIC against Ps. aeruginosa CL 5701. Format: cell-based. The conditions noted are these: Pseudomonas aeruginosa, CL5701, imipenem alone. The source says:
The assay determines the concentration of a β-lactamase inhibitor required to reduce the MIC of a β-lactam antibiotic by one-half, one-quarter, one-eighth, one-sixteenth and one-thirty-second against strains of bacteria normally resistant to the antibiotic in question. This is accomplished by titrating the inhibitor (BLI=beta-lactamase inhibitor) in a serial dilution across a microtiter plate while at the same time titrating the antibiotic (AB) in a serial dilution down the microtiter plate and then inoculating the plate with the bacterial strain in question and allowing the bacteria to grow up overnight. Each well in this microplate checkerboard contains a different combination of concentrations of the inhibitor and the antibiotic allowing a full determination of any synergy between the two.
• 1. All wells in rows B-H of MIC 2000 microtiter plates are filled with 100 μL of MHBII+1% DMSO (dimethyl sulfoxide). • 2. All wells in row A of MIC 2000 microtiter plates are filled with 100 μL of 2×MHBII+2% DMSO. • 3. […] Plates are left at 37° C. for about 20 hours and scored for growth by eye. […]
Plates are scored for growth in each well. End points (MICs) where there is no growth in each row are determined and the concentrations of AB and the test BLI at each of these growth negative wells are then used to determine levels of synergy. […]

As for `C[C@@H](O)[C@H]1C(=O)N2C(C(=O)O)=C(SCCN=CN)C[C@H]12` [Imipenem], the MIC is 20 µg/mL.

The term MIC denotes the least concentration at which growth counts as inhibited.
